From ChEMBL document CHEMBL1158376, “Azadirachtin, a scientific gold mine” (Bioorg Med Chem, 2009)

How the values were obtained:
[1] = Toxicity in rat; assay type: organism-based; conditions: in vivo
Drosophila melanogaster [2] = assay: Antiproliferative activity against Drosophila melanogaster Kc167 cells after 48 hrs; assay type: functional
Drosophila melanogaster [3] = assay: Induction of nuclear damage in Drosophila melanogaster Kc167 cells after 6 hrs; assay type: functional

C/C=C(\C)C(=O)O[C@H]1C[C@@H](OC(C)=O)[C@@]2(C(=O)OC)CO[C@H]3[C@@H](O)[C@@](C)([C@]45O[C@@]4(C)[C@@H]4C[C@H]5O[C@@H]5OC=C[C@@]54O)[C@H]4[C@]1(CO[C@]4(O)C(=O)OC)[C@@H]32 [AZADIRACHTIN A]
LD50 [1]: > 3540 mg/kg
inhibition (Drosophila melanogaster [2]): Dose-dependent effect
inhibition (Drosophila melanogaster [3]): Dose-dependent effect
